# Patent US20070020194A1, “Nasally administered appetite suppressant” (priority 2005, published 2007)
# Several values for one entry are separate records, joined by “and”; a condition that tells them apart may be missing. Equal entries are not always repeated.
# Legend:
# [1] = cited from earlier work
# [2] = Food intake study, intranasal lidocaine vs saline before a test meal; format: in vivo, human
# Description: Three males and one female between 23 and 60 years of age with BMI's less than 25 kg/m2 participated in a study of food intake. The subjects presented to the food intake laboratory at noon after an overnight fast except for water from 9 pm the prior night on two occasions a week apart. They had 10 mg (0.5 cc) of lidocaine or 0.5 cc normal saline administered in each nostril 20 minutes before presentation of a meal consisting of fried chicken pieces and water. They were allowed to eat and drink as much or as little as they wished over a 20-minute period, and there were more chicken pieces than they could reasonably be expected to eat at one sitting. The order of the lidocaine and saline was balanced and the study was performed in a double-blind fashion.
# The four subjects consumed 15%, 11%, 27% and 33% less on the lidocaine week compared to the placebo week. […] Sibutramine, an obesity drug, gives an 8% weight loss at 6 months and causes a 12% decrease in food intake.
# [3] = applied topically; cited from earlier work
# [4] = 70 kg adult; cited from earlier work
SMILES,weight loss ([1]; at 6 months) [%],decrease in food intake ([1]; in vivo) [%],"less food consumed on the lidocaine week compared to the placebo week (individual subjects) ([2]; 10 mg (0.5 cc) lidocaine in each nostril 20 minutes before meal, 20-minute meal of fried chicken pieces, four subjects, BMI less than 25 kg/m2)","overall reduction in food intake ([2]; 10 mg lidocaine per nostril vs saline, four subjects, p<0.02) [%+10.2%]",weight loss that might result if the food intake reduction is sustained ([2]; extrapolated from pilot study by comparison with sibutramine) [%],duration of anesthesia [3] [min],time to peak anesthesia [3] [min],maximum safe dosage for topical anesthetic [4] [mg]
CC(C)CC(N(C)C)C1(c2ccc(Cl)cc2)CCC1 (centres unmarked) [Sibutramine],8,12,–,–,–,–,–,–
CCN(CC)CC(=O)Nc1c(C)cccc1C [lidocaine],–,–,15% and 11% and 27% and 33%,21.5,≤ 14,30 to 45,2 to 5,500
